Assay: Plasma concentration of reduced coenzyme Q10 after oral administration to rats
Assay type: in vivo
Details: SD rats, male, oral 30 mg/kg as suspension with rapeseed oil (1:2) in 0.2% Tween 80
Experimental: Using the reduced coenzyme Q10 obtained in Example 1 and the reduced coenzyme Q10 obtained in Comparative Example 1, the blood concentrations of reduced coenzyme Q10 were measured when they were orally administered to rats. Each samples and rapeseed oil were added to aqueous solution of 0.2% Tween 80 to prepare suspension in which reduced coenzyme Q10:rapeseed oil=1:2. The suspension was orally administered to SD rats (male, 6 rats in one group) forcibly using a stomach sonde in 30 mg (reduced coenzyme Q10)/kg (rat body weight). Thereafter, the blood was sampled with time, and the plasma concentration of reduced coenzyme Q10 was measured by HPLC.

SMILES	Tmax, time to maximum plasma concentration (listed as Reduced coenzyme Q10 crystals obtained in Comparative Example 1, 30 mg/kg)	Tmax, time to maximum plasma concentration (listed as Reduced coenzyme Q10 crystals obtained in Example 1, 30 mg/kg)
COc1c(O)c(C)c(C/C=C(\C)CC/C=C(\C)CC/C=C(\C)CC/C=C(\C)CC/C=C(\C)CC/C=C(\C)CC/C=C(\C)CC/C=C(\C)CC/C=C(\C)CCC=C(C)C)c(O)c1OC [Crystals obtained in Comparative Example 1] [reduced coenzyme Q10]	8 h	
COc1c(O)c(C)c(C/C=C(\C)CC/C=C(\C)CC/C=C(\C)CC/C=C(\C)CC/C=C(\C)CC/C=C(\C)CC/C=C(\C)CC/C=C(\C)CC/C=C(\C)CCC=C(C)C)c(O)c1OC [Crystals obtained in Example 1, reduced coenzyme Q10]		4 h

Reference: patent publication US7358402B2, “Reduced coenzyme Q10 crystal with excellent stability and composition containing said reduced coenzyme Q10 crystal” (Kaneka Corporation, priority 2003, dated 2008)
